This note sets out measurements from patent US7511029B2, “Pesticidal diazene oxide carboxylates” (Chemtura Corporation, priority 2007, dated 2009).

Structures are written as SMILES.

In data set [1] the test system is Tetranychus urticae Koch. The data set can be described thus: Mite ovicide/larvicide (MIOVL) test. Format: in vivo. As to conditions: eggs/immature mites on cowpea leaves sprayed with 1000 ppm solution; examined nine days following treatment; effect larvicidal (L). The procedure: (§1) The remaining examples relate to the pesticidal use of compounds of this invention. In all these examples a stock solution for the compounds was prepared at 3000 ppm by dissolving 0.3 grams of the compound to be tested in 10 mL of acetone and adding 90 mL of distilled water plus four drops of ethoxylated sorbitan monolaurate, or a similar suitable wetting agent. For each example that follows, this stock solution was used and the specified dilutions made. All the tests discussed below, which involved treatment with compounds of this invention, were always repeated with controls, in which the active compound was not provided, to permit a comparison upon which the percent control was calculated. One day before treatment, a “figure 8” configuration of tree tanglefoot was applied to each of two cowpea primary leaves, one from each of two plants in a pot. In each Figure, the circle nearer the stem was designated for the mite ovicide/larvicide test and the circle further from the stem was designated for the mite adulticide test. Groups of adult mites (Tetranychus urticae Koch) were transferred into ovicide circles one day before treatment and the females were allowed to deposit eggs until one hour before treatment when they were removed. Plants were sprayed to run off with a 1000 ppm solution diluted from the 3000 ppm stock solution. […]

In data set [2] the test system is Tetranychus urticae Koch. Description: Mite adulticide (MI) test. Type of data set: in vivo. As to conditions: adult mites on cowpea leaves sprayed to run off with 1000 ppm solution; mites transferred one day after treatment, examined five days later. As to the method: as §1

Usually melting point stands for the temperature, or range, at which the solid turns liquid. In turn, `COc1ccc(-c2ccccc2)cc1[N+]([O-])=NC(=O)OC(C)C` [Compound 1, 1-Methylethyl 2-(4-methoxy-[1,1′-biphenyl]-3-yl)diazenecarboxylate 2-oxide] showed a melting point of 102 to 106 °C. Further, in the data set on Tetranychus urticae Koch [1], the “MIOVL (L) percent control” value came out at 100 % Control. Also, the MI percent control with Tetranychus urticae Koch [2] is on record as 100 % Control.
